Measurements as given in patent publication US8685974B2 (Bayer CropScience AG, priority 2009, dated 2014).
Several values for one entry are separate records, joined by “and”; a condition that tells them apart may be missing. Equal values may be shown once. Read-outs that look alike come from different tables or passages of the source. Marks after values point to notes of the source that are not given here.

Legend:
Aspergillus parasiticus = type: cell-based; settings: for % Inhibition of Aflatoxin at 50 μM: 7 days at 20° C.
Pyrenophora teres = experiment: In vivo test on Pyrenophora teres (barley net blotch); settings: dose of 500 ppm; barley plants; grading 12 days after contamination
Summary of the method: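 Scoring is done 12 days after spore spraying (12,000 spores/ml, from 12-day-old culture), relative to water-treated controls. Inoculation follows by 24 h a preventive spray of the aqueous-diluted formulation onto 1-leaf Plaisant barley raised at 12° C.; infection holds 24 h at about 20° C./100% RH, then 12 days at 80% RH.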

[1] = for logP value of the minor isomer (in parenthesis in column Isomer ratio [d]): main value of the example measured by method [b]
Alternaria solani = experiment: Alternaria test (tomato) / protective; type: in vivo; settings: 500 ppm active compound, protective spray, evaluated 7 days after inoculation
Summary of the method: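 Efficacy scored 7 days after inoculation, where 100% means no infection and 0% matches the untreated control. Test plants were young tomatoes given a protective spray at the stated rate, compound dissolved in DMF plus emulsifier and diluted with water. Incubation at 20° C, 96% relative humidity.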

Fusarium graminearum = type: cell-based; settings: 50 μM; for % Inhibition of DON/AcDON at 50 μM: 7 days at 28° C.
[2] = tested on: Mycosphaerella graminicola; experiment: In vivo test on Mycosphaerella graminicola (wheat leaf spot); settings: dose of 500 ppm; wheat plants; grading 21 to 28 days after contamination
Method: In Vivo Test on Mycosphaerella graminicola (Wheat Leaf Spot)
The active ingredients tested are prepared by homogenization in a mixture of acetone/tween/DMSO, then diluted with water to obtain the desired active material concentration.
Wheat plants (Scipion variety), sown on a 50/50 peat soil-pozzolana substrate in starter cups and grown at 12° C., are treated at the 1-leaf stage (10 cm tall) by spraying with the aqueous suspension described above. Plants, used as controls, are treated with an aqueous solution not containing the active material.
After 24 hours, the plants are contaminated by spraying them with an aqueous suspension of Mycosphaerella graminicola spores (500 000 spores per ml). The spores are collected from a 7-day-old culture. The contaminated wheat plants are incubated for 72 hours at 18° C. and at 100% relative humidity, and then for 21 to 28 days at 90% relative humidity.
Grading (% of efficacy) is carried out 21 to 28 days after the contamination, in comparison with the control plants.

Sphaerotheca fuliginea = experiment: In vivo test on Sphaerotheca fuliginea (cucurbits powdery mildew); settings: dose of 500 ppm; gherkin plants; grading 12 days after contamination
Method: In Vivo Test on Sphaerotheca fuliginea (Cucurbits Powdery Mildew)
(§1) The active ingredients tested are prepared by homogenization in a mixture of acetone/tween/DMSO, then diluted with water to obtain the desired active material.
Gherkin plants (Vert petit de Paris variety) in starter cups, sown on a 50/50 peat soil-pozzolana substrate and grown at 20° C./23° C., are treated at the cotyledon Z10 stage by spraying with the aqueous suspension described above. Plants, used as controls, are treated with an aqueous solution not containing the active material.
After 24 hours, the plants are contaminated by spraying them with an aqueous suspension of Sphaerotheca fuliginea spores (100 000 spores per ml). The spores are collected from a contaminated plants. The contaminated gherkin plants are incubated at about 20° C./25° C. and at 60/70% relative humidity.
Grading (% of efficacy) is carried out 12 days after the contamination, in comparison with the control plants.

Cochliobolus miyabeanus = experiment: Cochliobolus test (rice) / protective; type: in vivo; settings: 500 ppm active compound, protective spray, evaluated 4 days after inoculation
Botrytis cinerea = experiment: In vivo test on Botrytis cinerea (grey mould); settings: dose of 500 ppm; gherkin plants; grading 5/7 days after contamination
Method: In Vivo Test on Botrytis cinerea (Grey Mould)
The active ingredients tested are prepared by homogenization in a mixture of acetone/Tween/DMSO, then diluted with water to obtain the desired active material
Gherkin plants (Vert petit de Paris variety), sown on a 50/50 peat soil-pozzolana substrate in starter cups and grown at 18-20° C., are treated at the cotyledon Z11 stage by spraying with the active ingredient prepared as described above.
(§2) Plants, used as controls, are treated with an aqueous solution not containing the active material.
After 24 hours, the plants are contaminated by depositing drops of an aqueous suspension of Botrytis cinerea spores (150,000 spores per ml) on upper surface of the leaves. The spores are collected from a 15-day-old culture and are suspended in a nutrient solution composed of: • 20 g/L of gelatine; • 50 g/L of D-fructose; • 2 g/L of NH4NO3; • 1 g/L of KH2PO4.
The contaminated cucumber plants are settled for 5/7 days in a climatic room at 15-11° C. (day/night) and at 80% relative humidity.
Grading is carried out 5/7 days after the contamination, in comparison with the control plants.

Rhizoctonia solani = experiment: Rhizoctonia test (rice) / protective; type: in vivo; settings: 500 ppm active compound, protective spray, evaluated 4 days after inoculation
Method: Rhizoctonia Test (Rice)/Protective
Solvent: 28.5 parts by weight of acetone
Emulsifier: 1.5 parts by weight of polyoxyethylene alkyl phenyl ether
To produce a suitable preparation of active compound, 1 part by weight of active compound is mixed with the stated amounts of solvent and emulsifier, and the concentrate is diluted with water to the desired concentration.
To test for protective activity, young plants are sprayed with the preparation of active compound at the stated rate of application. One day after spraying, the plants are inoculated with a hypha of the causal agent of rice sheath blight (Rhizoctonia solani). The plants are then placed in an incubator at approximately 25° C. and a relative atmospheric humidity of approximately 100%.
The test is evaluated 4 days after the inoculation. 0% means an efficacy which corresponds to that of the control, while an efficacy of 100% means that no disease is observed.

Puccinia recondita = experiment: In vivo test on Puccinia recondita (brown rust); settings: dose of 500 ppm; wheat plants; grading 10 days after contamination
Method: In Vivo Test on Puccinia recondita (Brown Rust)
as §1
Wheat plants (Scipion variety) sown on 50/50 peat soil-pozzolana substrate in starter cups and grown at 12° C., are treated at the 1-leaf stage (10 cm tall) by spraying with the aqueous suspension described above.
as §2
After 24 hours, the plants are contaminated by spraying the leaves with an aqueous suspension of Puccinia recondita spores (100,000 spores per ml). The spores are collected from a 10-day-old contaminated wheat and are suspended in water containing 2.5 ml/l of tween 80 10%. The contaminated wheat plants are incubated for 24 hours at 20° C. and at 100% relative humidity, and then for 10 days at 20° C. and at 70% relative humidity.
Grading is carried out 10 days after the contamination, in comparison with the control plants.

Leptosphaeria nodorum = Leptosphaeria nodorum test (wheat) / protective; type: in vivo; settings: 500 ppm active compound, protective spray, evaluated 7-9 days after inoculation
Summary of the method: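 Young wheat plants sprayed protectively with compound in DMF/alkylaryl polyglycol ether emulsion diluted in water, then kept in greenhouse at 90% rel. humidity, 22° C. Scored 7-9 days after inoculation as % efficacy, 0% equal to untreated control and 100% no infection.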

[3] = method [c]: LC-MS at pH 7.8, 0.001 molar ammonium hydrogen carbonate, gradient 10% to 95% acetonitrile
Peronospora parasitica = experiment: In vivo test on Peronospora parasitica (crucifer downy mildew); settings: dose of 500 ppm; cabbage plants; grading 5 days after contamination
Method: In Vivo Test on Peronospora parasitica (Crucifer Downy Mildew)
The active ingredients tested are prepared by homogenization in a mixture of acetone/Tween/DMSO, then diluted with water to obtain the desired active material concentration.
Cabbage plants (Eminence variety) in starter cups, sown on a 50/50 peat soil-pozzolana substrate and grown at 18-20° C., are treated at the cotyledon stage by spraying with the aqueous suspension described above.
as §2
After 24 hours, the plants are contaminated by spraying them with an aqueous suspension of Peronospora parasitica spores (50 000 spores per ml). The spores are collected from infected plant.
The contaminated cabbage plants are incubated for 5 days at 20° C., under a humid atmosphere.
Grading is carried out 5 days after the contamination, in comparison with the control plants.

Phakopsora pachyrhizi = settings: 250 ppm active substance; protective; assessment 11 days after inoculation
Fusarium proliferatum = experiment: Production of fumonisin FB1 by Fusarium proliferatum (microtiter plate, HPLC-MS/MS and OD620); type: cell-based; settings: for % inhibition FB1 production at 50 μM: 5 days at 20° C., HPLC-MS/MS; for % inhibition fungal growth at 50 μM: Fusarium proliferatum, OD620 at start and after 5 days
Pyricularia grisea = settings: in vivo
Pyricularia oryzae = settings: in vivo

## Nc1cc(-c2cn(CCF)nc2-c2ccc(Cl)s2)ccn1 [Example 296]
Aspergillus parasiticus
  % Inhibition of fungal growth at 50 μM: 47%
  % Inhibition of Aflatoxin at 50 μM: 74%
Pyrenophora teres
  protection: 70%
[1]; pH 2.7
  log p: 1.46^[b]

## CCC(C)n1nc(-c2ccc(Cl)s2)c(-c2ccncc2)c1SC (centres unmarked) [Example 298]
Alternaria solani
  efficacy: 95%
Aspergillus parasiticus
  % Inhibition of fungal growth at 50 μM: 64%
  % Inhibition of Aflatoxin at 50 μM: 99%
[1]; pH 2.7
  log p: 3.35^[b]
Fusarium graminearum
  % Inhibition of fungal growth at 50 μM: 38%
  % Inhibition of DON/AcDON at 50 μM: 100%

## CCC(CC)n1cc(-c2ccncc2)c(-c2ccc(Cl)s2)n1 [Example 64]
Alternaria solani
  efficacy: 80%
[2]
  protection (% of efficacy): 88%
Sphaerotheca fuliginea
  protection (% of efficacy): 98%
Cochliobolus miyabeanus
  efficacy: 97%
Botrytis cinerea
  protection: 98%
Rhizoctonia solani
  efficacy: 100%
Pyrenophora teres
  protection: 95%
[1]; pH 2.7
  log p: 2.18^[b]
Puccinia recondita
  protection: 88%
Leptosphaeria nodorum
  efficacy: 78%

## ClC(Cl)=CCn1cc(-c2ccncc2)c(-c2ccc(Cl)s2)n1 [Example 50]
Rhizoctonia solani
  efficacy: 93%
Pyrenophora teres
  protection: 70%
[1]; pH 2.7
  logP value of the minor isomer (in parenthesis in column Isomer ratio [d]): (2.07)
  log p: 2.3^[b]

## CCC(C)n1cc(-c2ccnc(N)c2)c(-c2ccc(Cl)s2)n1 (centres unmarked) [Example 317]
[3]
  log p: 3.31^[c]
Fusarium graminearum
  % Inhibition of fungal growth at 50 μM: 78%
  % Inhibition of DON/AcDON at 50 μM: 100%

## CCC(C)n1cc(-c2ccncc2)c(-c2ccc(Cl)s2)n1 (centres unmarked) [Example 8]
Peronospora parasitica
  protection: 92%
Botrytis cinerea
  protection: 100%
Pyrenophora teres
  protection: 100%
[1]; pH 2.7
  log p: 2.1^[b]
Puccinia recondita
  protection: 86%
Phakopsora pachyrhizi
  activity level: 98%

## CC(C)Cn1cc(-c2ccncc2)c(-c2ccc(Cl)s2)n1 [Example 21]
[2]
  protection (% of efficacy): 85%
Fusarium proliferatum
  % inhibition FB1 production at 50 μM: 100%
  % inhibition fungal growth at 50 μM: 91%
Sphaerotheca fuliginea
  protection (% of efficacy): 89%
Botrytis cinerea
  protection: 100%
Pyrenophora teres
  protection: 100%
[1]; pH 2.7
  log p: 2.08^[b]
Puccinia recondita
  protection: 75% and 85%
Fusarium graminearum
  % Inhibition of fungal growth at 50 μM: 96%
  % Inhibition of DON/AcDON at 50 μM: 100%

## CC(C)Cn1ncc(-c2ccncc2)c1-c1ccc(Cl)s1 [Example 6]
[2]
  protection (% of efficacy): 70%
Sphaerotheca fuliginea
  protection (% of efficacy): 75%
[1]; pH 2.3
  log p: 2.2^[a]
Puccinia recondita
  protection: 70%

## C#CCn1cc(-c2ccncc2)c(-c2ccc(Cl)s2)n1 [Example 47]
Alternaria solani
  efficacy: 95%
Peronospora parasitica
  protection: 100%
Pyricularia grisea
  protection (% of efficacy): 86%
Pyricularia oryzae
  efficacy: 86%
Pyrenophora teres
  protection: 70%
[1]; pH 2.7
  logP value of the minor isomer (in parenthesis in column Isomer ratio [d]): (1.36)
  log p: 1.54^[b]
Puccinia recondita
  protection: 71%

## CC(C)n1cc(-c2ccncc2)c(-c2ccc(Cl)s2)n1 [Example 38]
Fusarium proliferatum
  % inhibition FB1 production at 50 μM: 100%
  % inhibition fungal growth at 50 μM: 88%
Sphaerotheca fuliginea
  protection (% of efficacy): 83%
Peronospora parasitica
  protection: 97%
Cochliobolus miyabeanus
  efficacy: 93%
Pyricularia grisea
  protection (% of efficacy): 98%
Pyricularia oryzae
  efficacy: 98%
Botrytis cinerea
  protection: 100%
Rhizoctonia solani
  efficacy: 97%
[1]; pH 2.3
  log p: 1.63^[a];
[1]; pH 2.7
  log p: 1.88^[b]
Puccinia recondita
  protection: 72%

## COCn1cc(-c2ccncc2)c(-c2ccc(Cl)s2)n1 [Example 52]
[2]
  protection (% of efficacy): 97%
Sphaerotheca fuliginea
  protection (% of efficacy): 90%
Botrytis cinerea
  protection: at least 70%
Pyrenophora teres
  protection: 86%
[1]; pH 2.7
  log p: 1.38^[b]
Puccinia recondita
  protection: 97%

## FC(F)(F)Cn1cc(-c2ccncc2)c(-c2ccc(Cl)s2)n1 [Example 54]
Cochliobolus miyabeanus
  efficacy: 90%
Rhizoctonia solani
  efficacy: 100%
[1]; pH 2.7
  log p: 1.88^[b]

## CCC(C)n1cc(-c2ccnc(N=C(c3ccccc3)c3ccccc3)c2)c(-c2ccc(Cl)s2)n1 (centres unmarked) [Example 308]
[3]
  log p: 6.5^[c]

## Cn1cc(-c2ccncc2)c(-c2ccc(Cl)s2)n1 [Example 46]
Alternaria solani
  efficacy: 95%
Peronospora parasitica
  protection: 92%
Pyricularia grisea
  protection (% of efficacy): 93%
Pyricularia oryzae
  efficacy: 93%
Pyrenophora teres
  protection: 70%
[1]; pH 2.7
  logP value of the minor isomer (in parenthesis in column Isomer ratio [d]): (1.17)
  log p: 1.26^[b]

## C=CC(C)n1cc(-c2ccncc2)c(-c2ccc(Cl)s2)n1 (racemic) [Example 61]
[2]
  protection (% of efficacy): 77%
Sphaerotheca fuliginea
  protection (% of efficacy): 94%
Peronospora parasitica
  protection: 100%
Cochliobolus miyabeanus
  efficacy: 92%
Rhizoctonia solani
  efficacy: 98%
[1]; pH 2.7
  logP value of the minor isomer (in parenthesis in column Isomer ratio [d]): (1.76)
  log p: 1.91^[b]
Puccinia recondita
  protection: 77%
